# Experimental data as given in patent US20120121540A1 (priority 2007, published 2012).
# Test: HCV replicon assay (luciferase reporter, ET cell line)
# Assay type: cell-based
# Conditions: Hepatitis C virus, HCV replicon luciferase activity in ET cells
# Summary of the method: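 EC50 and, via WST-1 cytotoxicity, TC50 were fitted with a Hill-coefficient equation to % inhibition across 10 two-fold dilutions. Compounds at 0.1 nM-[…] with 0.5% DMSO were applied 24 h post-seeding to replicon-bearing ET cells (luc-ubi-neo/NS3-5B, adaptive mutations). Firefly luciferase signal was measured after 48-72 h.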
row,Structure (SMILES),inhibition at 10 µM
1,"O=C(c1nc2c(C(F)(F)F)cc(-c3ccoc3)cn2c1Cl)N1CCC(n2cc(-c3ccccc3)[nH]c2=O)CC1 [Compound 553, 1-[1-(3-Chloro-6-furan-3-yl-8-trifluoromethyl-imidazo[1,2-a]pyridine-2-carbonyl)-piperidin-4-yl]-4-phenyl-1,3-dihydro-imidazol-2-one]",43.6%
2,"O=C(NCc1cccs1)c1nc2c(C(F)(F)F)cc(-c3cccc(F)c3)cn2c1I [Compound 299, 6-(3-Fluoro-phenyl)-3-iodo-8-trifluoromethyl-imidazo[1,2-a]pyridine-2-carboxylic Acid(thiophen-2-ylmethyl)-amide]",97.6%
3,"O=C(c1nc2c(C(F)(F)F)cc(-c3ccoc3)cn2c1Cl)N1CC=C(c2cccc(F)c2)C1 [Compound 426, (3-Chloro-6-furan-3-yl-8-trifluoromethyl-imidazo[1,2-a]pyridin-2-yl)-[3-(3-fluoro-phenyl)-2,5-dihydro-pyrrol-1-yl]-methanone]",98.2%
4,"O=C(NCc1ccccc1)c1cc2cc(-c3ccccc3)cc(I)n2n1 [Compound 129, 7-Iodo-5-phenyl-pyrazolo[1,5-a]pyridine-2-carboxylic Acid benzylamide]",43%
5,"C#Cc1cc(C(F)(F)F)c2nc(C(=O)NCc3cccs3)c(Cl)n2c1 [Compound 297, 3-Chloro-6-ethynyl-8-trifluoromethyl-imidazo[1,2-a]pyridine-2-carboxylic Acid (thiophen-2-ylmethyl)-amide]",29.3%
6,"O=C(NCc1ccccc1)NCc1cn2cc(-c3ccoc3)cc(C(F)(F)F)c2n1 [Compound 391, 1-Benzyl-3-(6-furan-3-yl-8-trifluoromethyl-imidazo[1,2-a]pyridin-2-ylmethyl)-urea]",99.9%
7,"C[C@@H](CNC(=O)c1nc2c(C(F)(F)F)cc(-c3ccoc3)cn2c1Cl)c1ccccc1 (stereo in doubt) [Compound 413, 3-Chloro-6-furan-3-yl-8-trifluoromethyl-imidazo[1,2-a]pyridine-2-carboxylic Acid (2-phenyl-propyl)-amide]",82.8%
8,"O=C(NCc1cccs1)c1nc2c(C(F)(F)F)cc(-c3ccc(Cl)s3)cn2c1Cl [Compound 176, 3-Chloro-6-(5-chloro-thiophen-2-yl)-8-trifluoromethyl-imidazo[1,2-a]pyridine-2-carboxylic acid (thiophen-2-ylmethyl)-amide]",96.8%
9,"COc1ccccc1CNC(=O)c1nc2c(C(F)(F)F)cc(-c3ccco3)cn2c1Cl [Compound 190, 3-Chloro-6-furan-2-yl-8-trifluoromethyl-imidazo[1,2-a]pyridine-2-carboxylic acid 2-methoxy-benzylamide]",68.1%
10,"O=C(c1nc2c(C(F)(F)F)cc(-c3ccoc3)cn2c1Cl)N1CC=C(C2=CN=CNC2)CC1 [Compound 619, [3-chloro-6-(furan-3-yl)-8-(trifluoromethyl)imidazo[1,2-a]pyridin-2-yl][4-(1,6-dihydropyrimidin-5-yl)-3,6-dihydropyridin-1(2H)-yl]methanone]",44%
11,"O=C(NCc1cccs1)c1nc2c(C(F)(F)F)cc(-c3cccc(F)c3)cn2c1-c1cn[nH]c1 [Compound 301, 6-(3-Fluoro-phenyl)-3-(1H-pyrazol-4-yl)-8-trifluoromethyl-imidazo[1,2-a]pyridine-2-carboxylic Acid (thiophen-2-ylmethyl)-amide]",79.9%
12,"COC(=O)Cc1c(C(=O)N2CCC(c3ccc(F)cc3)C2)nc2c(C(F)(F)F)cc(-c3ccoc3)cn12 (stereo not drawn) [Compound 235, {2-[3-(4-Fluoro-phenyl)-pyrrolidine-1-carbonyl]-6-furan-3-yl-8-trifluoromethyl-imidazo[1,2-a]pyridin-3-yl}-acetic Acid Methyl Ester]",96.6%
13,"O=C(c1nc2c(C(F)(F)F)cc(-c3ccoc3)cn2c1Cl)N1CC=C(c2ccsc2)C1 [Compound 425, (3-Chloro-6-furan-3-yl-8-trifluoromethyl-imidazo[1,2-a]pyridin-2-yl)-(3-thiophen-3-yl-2,5-dihydro-pyrrol-1-yl)-methanone]",99.3%
14,"O=C(NCc1ccsc1)c1nc2c(C(F)(F)F)cc(-c3ccco3)cn2c1Cl [Compound 173, 3-Chloro-6-furan-2-yl-8-trifluoromethyl-imidazo[1,2-a]pyridine-2-carboxylic acid (thiophen-3-ylmethyl)-amide]",95.2%
15,"O=C(NCCc1cccs1)c1nc2c(C(F)(F)F)cc(-c3ccco3)cn2c1Cl [Compound 185, 3-Chloro-6-furan-2-yl-8-trifluoromethyl-imidazo[1,2-a]pyridine-2-carboxylic acid (2-thiophen-2-yl-ethyl)-amide]",95.7%
16,"COC(=O)c1cc(C(F)(F)F)c2nc(C(=O)NCc3cccs3)c(Cl)n2c1 [Compound 312, 3-Chloro-2-[(thiophen-2-ylmethyl)-carbamoyl]-8-trifluoromethyl-imidazo[1,2-a]pyridine-6-carboxylic Acid Methyl Ester]",76.2%
17,"CN(C)S(=O)(=O)c1ccccc1C1=CCN(C(=O)c2nc3c(C(F)(F)F)cc(-c4ccoc4)cn3c2Cl)CC1 [Compound 577, 2-[1-(3-Chloro-6-furan-3-yl-8-trifluoromethyl-imidazo[1,2-a]pyridin-2-carbonyl)-1,2,3,6-tetrahydro-pyridin-4-yl)-N,N-dimethyl-benzenesulfonamide]",71.2%

row,Structure (SMILES),inhibition at 10 µM
1,"O=C(NCc1ccc(F)cc1)NCc1cn2cc(-c3ccoc3)cc(C(F)(F)F)c2n1 [Compound 397, 1-(4-Fluoro-benzyl)-3-(6-furan-3-yl-8-trifluoromethyl-imidazo[1,2-a]pyridine-2-ylmethyl)-urea]",21.9%
2,"O=C(NCc1cccs1)c1nc2c(C(F)(F)F)cc(-c3ccsc3)cn2c1-c1ccsc1 [Compound 200, 3,6-Di-thiophen-3-yl-8-trifluoromethyl-imidazo[1,2-a]pyridine-2-carboxylic acid (thiophen-2-ylmethyl)-amide]",91.6%
3,O=C(c1nc2c(C(F)(F)F)cc(-c3ccoc3)cn2c1Cl)N1CCN(c2cnccn2)CC1 [Compound 537],61%
4,"O=C(c1nc2c(C(F)(F)F)cc(-c3ccoc3)cn2c1Cl)N1CC=C(c2ccccc2F)C1 [Compound 424, (3-Chloro-6-furan-3-yl-8-trifluoromethyl-imidazo[1,2-a]pyridin-2-yl)-[3-(2-fluoro-phenyl)-2,5-dihydro-pyrrol-1-yl]-methanone]",99.7%
5,"O=C(c1nc2c(C(F)(F)F)cc(-c3ccoc3)cn2c1Cl)N1CCC(c2ccccc2)CC1 [Compound 535, (3-Chloro-6-furan-3-yl-8-trifluoromethyl-imidazo[1,2-a]pyridine-2-yl)-(4-phenyl-piperidin-1-yl)-methanone]",86.6%
6,"O=C(Nc1nc2c(C(F)(F)F)cc(-c3ccoc3)cn2c1Cl)c1cccs1 [Compound 356, Thiophene-2-carboxylic acid (3-chloro-6-furan-3-yl-8-trifluoromethyl-imidazo[1,2-a]pyridin-2-yl)-amide]",32.5%
7,"C[C@H](CNC(=O)c1nc2c(C(F)(F)F)cc(-c3ccoc3)cn2c1Cl)c1ccccc1 [Compound 414, 3-Chloro-6-furan-3-yl-8-trifluoromethyl-imidazo[1,2-a]pyridine-2-carboxylic Acid (2-phenyl-propyl)-amide]",76.3%
8,"O=C(c1nc2c(C(F)(F)F)cc(-c3ccoc3)cn2c1Cl)N1CC=C(c2ccc(F)nc2F)CC1 [Compound 617, (3-Chloro-6-furan-3-yl-8-trifluoromethyl-imidazo[1,2-a]pyridin-2-yl)-(2,6-difluoro-3′,6′-dihydro-2′H-[3,4′]bipyridinyl-1′-yl)-methanone]",95%
9,"O=C(c1nc2c(C(F)(F)F)cc(-c3cn[nH]c3)cn2c1Br)N1CCC(c2ccccc2)C1 (stereo not drawn) [Compound 461, (3-Bromo-6-(1H-pyrazol-4-yl)-8-trifluoromethyl-imidazo[1,2-a]pyridin-2-yl)-(3-phenyl-pyrrolidin-1-yl)-methanone]",94.3%
10,"O=C(c1nc2c(C(F)(F)F)cc(-c3ccoc3)cn2c1Cl)N1CC=C(c2ncc(CO)s2)CC1 [Compound 573, (3-Chloro-6-furan-3-yl-8-trifluoromethyl-imidazo[1,2-a]pyridine-2-yl)-[4-(5-hydroxymethyl-thiazol-2-yl)-3,6-dihydro-2H-pyridin-1-yl]-methanone]",91.2%
11,"O=C(NCc1cccs1)c1nc2c(/C=C/c3ccccc3)cc(-c3ccccc3)cn2c1Cl [Compound 359, 3-Chloro-6-phenyl-8-styryl-imidazo[1,2-a]pyridine-2-carboxylic Acid (thiophen-2-ylmethyl)-amide]",100%
12,"O=C(NCc1cccs1)c1nc2c(C(F)(F)F)cc(C#Cc3ccccc3)cn2c1Cl [Compound 294, 3-Chloro-6-phenylethynyl-8-trifluoromethyl-imidazo[1,2-a]pyridine-2-carboxylic Acid(thiophen-2-ylmethyl)-amide]",41.5%
13,"O=C(NCc1cccnc1)c1nc2c(C(F)(F)F)cc(-c3ccco3)cn2c1Cl [Compound 164, 3-Chloro-6-furan-2-yl-8-trifluoromethyl-imidazo[1,2-a]pyridine-2-carboxylic acid (pyridin-3-ylmethyl)-amide]",70.1%
14,"O=C(NCc1cccs1)c1cn2nc(-c3ccccc3)cc(C(F)(F)F)c2n1 [Compound 248, 6-Phenyl-8-trifluoromethyl-imidazo[1,2-b]pyridazine-2-carboxylic Acid (thiophen-2-ylmethyl)-amide]",45.8%
15,"COc1cccc(CNC(=O)c2nc3c(C(F)(F)F)cc(-c4ccco4)cn3c2Cl)c1 [Compound 191, 3-Chloro-6-furan-2-yl-8-trifluoromethyl-imidazo[1,2-a]pyridine-2-carboxylic acid 3-methoxy-benzylamide]",2.3%
16,"O=S(=O)(Cc1ccccc1)Nc1nc2c(C(F)(F)F)cc(-c3ccco3)cn2c1Cl [Compound 363, N-(3-Chloro-6-furan-2-yl-8-trifluoromethyl-imidazo[1,2-a]pyridin-2-yl)-C-phenyl-methanesulfonamide]",12.6%
